In US20080152715A1, “Method for preparing nanoparticles comprising vitamin K and poly-isopropyl-butyl methacrylate-acrylic acid copolymer with supercritical fluid using molecular association theory” (Seoul National Universtiy Industry Foundation, priority 2006, published 2008):

Experiment: Particle size measurement using a Particle Size Analyzer
Format: physicochemical
Conditions: pretreated vitamin K, before the supercritical process
Method: The pretreated vitamin K has a particle size of 50 to 100 microns. In Examples, the particle sizes of vitamin K nanoparticles prepared by the following conditions were measured using a Particle Size Analyzer. Here, spherical fine particles having a particle size of 50 to 300 nm can be obtained according to the presence or absence of a poly-isopropyl-butyl methacrylate-acrylic acid copolymer as a biodegradable polymer, and the operating conditions.
As shown in the following Table 1, the present Examples represent the operating conditions of the reactor in the step of formation of a spherical structure. The temperature and the pressure of the reactor must be each above 304.2 K and 73.8 bar, which correspond to the critical temperature and the critical pressure of carbon dioxide, respectively. The operating parameters in the reactor are the temperature and the pressure in reactor, the amount of carbon dioxide as a supercritical fluid, and the amount of solution prepared in the preparation step. In Example 1, the solution contains vitamin K of 0.0016 wt % alone without a biodegradable polymer. In Example 2 to 8, the solution contains both of vitamin K of 0.0016 wt % and the poly-isopropyl-butyl methacrylate-acrylic acid copolymer of 0.0014 wt % as a biodegradable polymer. […] In Examples 1 and 3, the change was measured at 313K and 323K by adjusting the reactor temperature. […]

particle size: 50 to 100 microns
Substance: vitamin K [pretreated vitamin K]
